Laboratory results: PMC12365235, “Molecular mechanisms of thiazide-like diuretics-mediated inhibition of the human Na-Cl cotransporter” (Nature Communications, 2025)
Several values for one entry are separate records, joined by “and”; a condition that tells them apart may be missing. Equal entries are not always repeated.

Assays:
[1] = target: T1, hNCC(WT) (Homo sapiens, UniProt P55017); assay: 125I- uptake assay, HEK293S cells stably expressing hNCC(WT); type: cell-based; conditions: for apparent affinity compared to polythiazide (times lower): hNCC(WT), Supplementary Fig. 2d
T1 construct: expressed in transfected cells
T1 sequence (P55017 1-1021): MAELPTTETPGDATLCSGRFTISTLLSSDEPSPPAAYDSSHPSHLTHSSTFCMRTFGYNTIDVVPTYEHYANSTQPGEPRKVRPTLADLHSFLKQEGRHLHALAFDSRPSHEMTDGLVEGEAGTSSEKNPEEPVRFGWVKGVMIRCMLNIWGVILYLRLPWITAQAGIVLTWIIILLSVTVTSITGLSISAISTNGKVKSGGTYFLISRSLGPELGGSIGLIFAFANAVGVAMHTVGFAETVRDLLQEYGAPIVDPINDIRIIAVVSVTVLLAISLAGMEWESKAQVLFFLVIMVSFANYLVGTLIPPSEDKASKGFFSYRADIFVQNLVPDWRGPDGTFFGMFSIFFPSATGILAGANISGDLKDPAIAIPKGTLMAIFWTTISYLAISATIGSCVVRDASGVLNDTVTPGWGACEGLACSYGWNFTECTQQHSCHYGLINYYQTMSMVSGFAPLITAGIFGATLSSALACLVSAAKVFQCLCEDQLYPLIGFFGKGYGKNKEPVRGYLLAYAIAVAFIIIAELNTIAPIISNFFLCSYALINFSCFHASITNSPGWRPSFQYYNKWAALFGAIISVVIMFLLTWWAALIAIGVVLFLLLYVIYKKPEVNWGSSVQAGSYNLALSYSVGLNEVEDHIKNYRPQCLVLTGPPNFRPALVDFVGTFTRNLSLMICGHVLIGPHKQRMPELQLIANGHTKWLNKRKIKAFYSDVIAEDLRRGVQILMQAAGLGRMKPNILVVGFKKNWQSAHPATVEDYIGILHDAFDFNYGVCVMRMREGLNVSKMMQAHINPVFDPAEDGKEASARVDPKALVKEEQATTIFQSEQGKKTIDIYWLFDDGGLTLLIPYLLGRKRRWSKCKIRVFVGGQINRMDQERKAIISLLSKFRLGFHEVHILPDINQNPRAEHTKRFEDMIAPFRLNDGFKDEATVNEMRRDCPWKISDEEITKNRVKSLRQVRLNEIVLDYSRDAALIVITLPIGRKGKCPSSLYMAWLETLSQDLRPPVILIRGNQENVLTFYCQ
Method: (§1) HEK293S cell lines, cultured in 293 Freestyle medium (Life Technologies; plus 10% fetal bovine serum), stably expressing hNCC and its variants were generated following published protocols. Cells were transfected using Lipofectamine 3000 (Invitrogen) with a pSBbi-RP-based plasmid containing hNCC or its variants and the SB100X vector. Puromycin (2 μg/mL; Gemini Bio-Products) was used for selection of stable cell lines.
(§2) To prepare for the uptake experiment, cells were plated at 0.5 × 10^6 cells/well in 24-well plates one day in advance. To activate NCC, cells were treated with a chloride-free hypotonic solution composed of 67.5 mM sodium-, 2.5 mM potassium-, 0.25 mM magnesium-, and 0.25 mM calcium-gluconate, as well as 7.5 mM HEPES pH 7.4 (buffered using Tris) at 37 °C for 10 min[72]. After the activation step, the experiments were carried out at room temperature. Ten minutes before the start of ^125I^− uptake, 70 μM Bumetanide (Thermo Scientific Chemicals) and 100 μM 4,4′-diisothiocyanatostilbene-2,2′-disulfonic acid (DIDS; Sigma) were added to suppress background iodide uptake activity. Indicated thiazide diuretics were also added to the indicated concentrations 10 min before the start of ^125I^− uptake. The original buffer was switched to an uptake buffer composed of 135 mM Na-gluconate, 5 mM K-gluconate, 1 mM Mg-gluconate, 1 mM Ca-gluconate, 70 μM bumetanide, 100 μM DIDS, 1 mM NaI, 0.25 μCi/ml Na^125I (American Radiolabeled Chemicals, Inc.), and 15 mM HEPES pH 7.4 (buffered using Tris), in the presence or absence of thiazide diuretics to initiate ^125I^− uptake. The ^125I^− uptake process lasted 1 h and was stopped by two rapid washes using ice-cold 110 mM MgCl2. Cells lysed using 1% sodium dodecyl sulfate (SDS) were analyzed by scintillation counting.
(§3) To calculate the fold change of the half-maximal inhibitory concentration (IC50) between hNCC(WT) and different hNCC variants, individual dose-response curves were normalized first using the smallest mean and the value of the lowest concentration as 0% and 100%, respectively. The normalized data were then fitted using the “EC50 shift” nonlinear regression in GraphPad Prism 10 with the shared EC50Control assigned to be the IC50 of hNCC(WT). The following constraints were used in the EC50 shift analysis. The EC50Control was set to be shared across all curves under analysis and constrained to be greater than 0. The EC50Ratio was constrained to be greater than 0. The bottom, top, and HillSlope were constrained to be 0, 100, and −1, respectively. For Fig. 1f, g and Supplementary Fig. 2d, GraphPad Prism 10 was used to perform curve fitting and IC50 calculation for normalized data using y = 100/(1 + (x/IC50)).

[2] = system: hNCC(V231M); assay: 125I- uptake assay, hNCC(V231M) variant; type: cell-based, human; conditions: V231M polymorphism
Method: as §1, §2, §3

[3] = thiazide-sensitive iodide uptake, HEK293S stable cells, 1 mM extracellular iodide

SMILES	apparent affinity compared to polythiazide (times lower) [1]	IC50 [1, 3]	sensitivity relative to hNCC(WT) (fold lower) [2]	IC50 ([1]; as quoted in reviewer comment on the earlier manuscript version)
NS(=O)(=O)c1cc(C2(O)NC(=O)c3ccccc32)ccc1Cl (centres unmarked) [chlorthalidone]	~ 40 times	23 nM	3 fold	
CC1Cc2ccccc2N1NC(=O)c1ccc(Cl)c(S(N)(=O)=O)c1 (centres unmarked) [indapamide]	~ 16 times		2 fold	9.3 nM
CN1C(CSCC(F)(F)F)Nc2cc(Cl)c(S(N)(=O)=O)cc2S1(=O)=O (centres unmarked) [polythiazide]		0.58 nM and ~0.5 nM	nearly as sensitive as the wild-type	
